These compounds were tested against T1, REV-ERBα LBD (human; residues 281-614 Δ324-422) (Homo sapiens, UniProt P20393, DEL324-422) (assay: TR-FRET corepressor interaction assay (REV-ERBα LBD, FITC-SMRT peptide)). Conditions: FITC-SMRT peptide, read-out: REVERBα agonism (EC50 class, FRET assay).
T1 construct: 6×Histag-REV-ERBα LBD (human; residues 281-614 Δ324-422); made in house; host or cells: Escherichia coli
Format: biochemical
In short: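 Compound serial dilutions (in DMSO, triplicate) incubated 2 h at 4 °C; Tb donor excited at 340 nm, emission read at 495 nm and FITC acceptor at 520 nm. TR-FRET ratio (520/495 nm) plotted against ligand concentration and fitted to a sigmoidal dose-response curve.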

T1 sequence (P20393 with tags, fused parts or gaps DEL324-422): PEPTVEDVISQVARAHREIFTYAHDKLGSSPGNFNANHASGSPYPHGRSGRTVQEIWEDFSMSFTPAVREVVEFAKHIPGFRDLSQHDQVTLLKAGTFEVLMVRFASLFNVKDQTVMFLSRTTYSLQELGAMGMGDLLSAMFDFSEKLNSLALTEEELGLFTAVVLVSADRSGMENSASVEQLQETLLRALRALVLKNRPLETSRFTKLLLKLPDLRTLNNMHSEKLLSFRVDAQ
T1 sequence (Q9Y618 2335-2356 partner limits assumed): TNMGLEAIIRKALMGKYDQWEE

Row | EC50 | Structure (SMILES)
1 | 500 to 3000 nM | CC(C)(C)Cn1cc([C@H](NS(=O)(=O)C2CC2)C(F)(F)F)c2cc(F)c(-c3cccc4c3CCCC4)cc21 [Example 477, N-[(1S)-1-[1-(2,2-dimethylpropyl)-5-fluoro-6-tetralin-5-yl-indol-3-yl]-2,2,2-trifluoro-ethyl]cyclopropanesulfonamide]
2 | 500 to 3000 nM | CC(C)(O)Cn1cc([C@H](NS(=O)(=O)C2CCC2)C(F)(F)F)c2cc(F)c(-c3ccccc3C(F)(F)F)cc21 [Example 478, N-[(1S)-2,2,2-trifluoro-1-[5-fluoro-1-(2-hydroxy-2-methyl-propyl)-6-[2-(trifluoromethyl)phenyl]indol-3-yl]ethyl]cyclobutanesulfonamide]
3 | < 500 nM | CC(C)(C)Cn1cc([C@H](NS(=O)(=O)C2CCC2)C(F)(F)F)c2cc(F)c(-c3cccc4c3CCCC4)cc21 [Example 479, N-[(1S)-1-[1-(2,2-dimethylpropyl)-5-fluoro-6-tetralin-5-yl-indol-3-yl]-2,2,2-trifluoro-ethyl]cyclobutanesulfonamide]
4 | 500 to 3000 nM | CC(C)(C)Cn1cc(CCNS(=O)(=O)C2CC2)c2ccc(-c3cccc(C(F)(F)F)c3Cl)cc21 [Example 485, N-(2-(6-(2-chloro-3-(trifluoromethyl)phenyl)-1-neopentyl-1H-indol-3-yl)ethyl)cyclopropanesulfonamide]
5 | 500 to 3000 nM | CC(C)(CO)Cn1cc([C@H](NS(=O)(=O)C2CC2)C(F)(F)F)c2cc(F)c(-c3ccccc3C(F)(F)F)cc21 [Example 490, N-[(1S)-2,2,2-trifluoro-1-[5-fluoro-1-(3-hydroxy-2,2-dimethyl-propyl)-6-[2-(trifluoromethyl)phenyl]indol-3-yl]ethyl]cyclopropanesulfonamide]
6 | < 500 nM | CC(C)(C)Cn1cc([C@H](NS(=O)(=O)C2CC2)C(F)(F)F)c2ccc(-c3ccccc3C(F)(F)F)nc21 [Example 491, N-[(1S)-1-[1-(2,2-dimethylpropyl)-6-[2-(trifluoromethyl)phenyl]pyrrolo[2,3-b]pyridin-3-yl]-2,2,2-trifluoro-ethyl]cyclopropanesulfonamide]
7 | < 500 nM | CC(C)(C)Cn1cc([C@H](NS(=O)(=O)C2CCC2)C(F)(F)F)c2ccc(-c3ccccc3C(F)(F)F)nc21 [Example 492, N-[(1S)-1-[1-(2,2-dimethylpropyl)-6-[2-(trifluoromethyl)phenyl]pyrrolo[2,3-b]pyridin-3-yl]-2,2,2-trifluoro-ethyl]cyclobutanesulfonamide]
8 | < 500 nM | CC(C)(C)Cn1cc([C@H](NS(=O)(=O)C2CCC2)C(F)(F)F)c2ccc(-c3ccccc3C(F)(F)F)cc21 [Example 494, (S)—N-(2,2,2-trifluoro-1-(1-neopentyl-6-(2-(trifluoromethyl)phenyl)-1H-indol-3-yl)ethyl)cyclobutanesulfonamide]
9 | < 500 nM | CC(C)(C)Cn1cc([C@H](NS(=O)(=O)C2CCC2)C(F)(F)F)c2ccc(-c3ccccc3C#N)cc21 [Example 495, (S)—N-(1-(6-(2-cyanophenyl)-1-neopentyl-1H-indol-3-yl)-2,2,2-trifluoroethyl)cyclobutanesulfonamide]
10 | < 500 nM | CC(C)(C)Cn1cc([C@H](NS(=O)(=O)C2CCC2)C(F)(F)F)c2ccc(-c3c(F)cccc3C(F)(F)F)cc21 [Example 496, (S)—N-(2,2,2-trifluoro-1-(6-(2-fluoro-6-(trifluoromethyl)phenyl)-1-neopentyl-1H-indol-3-yl)ethyl)cyclobutanesulfonamide]
11 | < 500 nM | CC(C)(C)Cn1cc([C@H](NS(=O)(=O)C2CCC2)C(F)(F)F)c2ccc(-c3ccc(F)cc3C(F)(F)F)cc21 [Example 497, (S)—N-(2,2,2-trifluoro-1-(6-(4-fluoro-2-(trifluoromethyl)phenyl)-1-neopentyl-1H-indol-3-yl)ethyl)cyclobutanesulfonamide]
12 | < 500 nM | CC(C)Cn1cc([C@H](NS(=O)(=O)C2CCC2)C(F)(F)F)c2ccc(-c3ccccc3C(F)(F)F)cc21 [Example 499, (S)—N-(2,2,2-trifluoro-1-(1-isobutyl-6-(2-(trifluoromethyl)phenyl)-1H-indol-3-yl)ethyl)cyclobutanesulfonamide]
13 | < 500 nM | Cc1ccc2c([C@H](NS(=O)(=O)C3CCC3)C(F)(F)F)cn(CC(C)(C)C)c2c1 [Example 500, (S)—N-(2,2,2-trifluoro-1-(6-methyl-1-neopentyl-1H-indol-3-yl)ethyl)cyclobutanesulfonamide]
14 | < 500 nM | CC(C)(C)Cn1cc([C@H](NS(=O)(=O)C2CCC2)C(F)(F)F)c2ccc(C3CC3)cc21 [Example 501, (S)—N-(1-(6-cyclopropyl-1-neopentyl-1H-indol-3-yl)-2,2,2-trifluoroethyl)cyclobutanesulfonamide]
15 | < 500 nM | CC(C)(C)Cn1cc([C@H](NS(=O)(=O)C2CCC2)C(F)(F)F)c2ccc(C3CCCC3)cc21 [Example 506, (S)—N-(1-(6-cyclopentyl-1-neopentyl-1H-indol-3-yl)-2,2,2-trifluoroethyl)cyclobutanesulfonamide]
16 | < 500 nM | CC(NS(=O)(=O)C1CCC1)c1cn(CC(C)(C)C)c2cc(-c3ccccc3C(F)(F)F)ccc12 (stereo not shown) [Example 507, N-(1-(1-neopentyl-6-(2-(trifluoromethyl)phenyl)-1H-indol-3-yl)ethyl)cyclobutanesulfonamide]
17 | < 500 nM | CC(NS(=O)(=O)C1CCC1)c1cn(CC(C)(C)C)c2cc(-c3ccccc3C(F)(F)F)c(F)cc12 (stereo not shown) [Example 508, N-(1-(5-fluoro-1-neopentyl-6-(2-(trifluoromethyl)phenyl)-1H-indol-3-yl)ethyl)cyclobutanesulfonamide]
18 | < 500 nM | [2H]C([2H])([2H])C(NS(=O)(=O)C1CCC1)c1cn(CC(C)(C)C)c2cc(-c3ccccc3C(F)(F)F)ccc12 (stereo not shown) [Example 509, N-(1-(1-neopentyl-6-(2-(trifluoromethyl)phenyl)-1H-indol-3-yl)ethyl-2,2,2-d3)cyclobutanesulfonamide]

More lines, now with the values behind:

Row | Structure (SMILES) | EC50
19 | CC(C)(C)C(=O)n1cc([C@H](NS(=O)(=O)C2CC2)C(F)(F)F)c2ccc(-c3ccccc3C(F)(F)F)cc21 [Example 480, (S)—N-(2,2,2-trifluoro-1-(1-pivaloyl-6-(2-(trifluoromethyl)phenyl)-1H-indol-3-yl)ethyl)cyclopropanesulfonamide] | 500 to 3000 nM
20 | CC(C)(C)Cn1cc(CCNS(=O)(=O)C2CC2)c2ccc(-c3ccc(C(F)(F)F)cc3C(F)(F)F)cc21 [Example 481, N-(2-(6-(2,4-bis(trifluoromethyl)phenyl)-1-neopentyl-1H-indol-3-yl)ethyl)cyclopropanesulfonamide] | 500 to 3000 nM
21 | CC(C)(C)Cn1cc(CCNS(=O)(=O)C2CC2)c2ccc(-c3ccc(Cl)cc3C#N)cc21 [Example 482, N-(2-(6-(4-chloro-2-cyanophenyl)-1-neopentyl-1H-indol-3-yl)ethyl)cyclopropanesulfonamide] | < 500 nM
22 | CC(C)(C)Cn1cc(CCNS(=O)(=O)C2CC2)c2ccc(-c3cc(C(F)(F)F)ccc3C(F)(F)F)cc21 [Example 483, N-(2-(6-(2,5-bis(trifluoromethyl)phenyl)-1-neopentyl-1H-indol-3-yl)ethyl)cyclopropanesulfonamide] | < 500 nM
23 | CC(C)(C)Cn1cc(CCNS(=O)(=O)C2CC2)c2ccc(-c3cc(C(F)(F)F)ccc3Cl)cc21 [Example 484, N-(2-(6-(2-chloro-5-(trifluoromethyl)phenyl)-1-neopentyl-1H-indol-3-yl)ethyl)cyclopropanesulfonamide] | < 500 nM
24 | CC(C)(C)Cn1cc(CCNS(=O)(=O)C2CC2)c2ccc(-c3cccc(C#N)c3Cl)cc21 [Example 486, N-(2-(6-(2-chloro-3-cyanophenyl)-1-neopentyl-1H-indol-3-yl)ethyl)cyclopropanesulfonamide] | 500 to 3000 nM
25 | CC(C)(C)Cc1cn(CCNS(=O)(=O)C2CC2)c2ccc(-c3ccc(C(F)(F)F)cc3C#N)cc12 [Example 487, N-(2-(5-(2-cyano-4-(trifluoromethyl)phenyl)-3-neopentyl-1H-indol-1-yl)ethyl)cyclopropanesulfonamide] | 500 to 3000 nM
26 | CC1(Cn2cc([C@H](NS(=O)(=O)C3CC3)C(F)(F)F)c3cc(F)c(-c4ccccc4C(F)(F)F)cc32)COC1 [Example 489, N-[(1S)-2,2,2-trifluoro-1-[5-fluoro-1-[(3-methyloxetan-3-yl)methyl]-6-[2-(trifluoromethyl)phenyl]indol-3-yl]ethyl]cyclopropanesulfonamide] | < 500 nM
27 | CC(C)Cn1cc(C(CS(=O)(=O)C2CC2)C(F)(F)F)c2ccc(-c3ccccc3C(F)(F)F)cc21 (stereo not shown) [Example 498, 3-(3-(cyclopropylsulfonyl)-1,1,1-trifluoropropan-2-yl)-1-isobutyl-6-(2-(trifluoromethyl)phenyl)-1H-indole] | 500 to 3000 nM
28 | CCS(=O)(=O)NCCn1cc(CC(C)(C)C)c2cc(-c3ccc(C(F)(F)F)cc3C(F)(F)F)ccc21 [Example 502, N-(2-(5-(2,4-bis(trifluoromethyl)phenyl)-3-neopentyl-1H-indol-1-yl)ethyl)ethanesulfonamide] | < 500 nM
29 | CC(C)(C)Cc1cn(CCNS(=O)(=O)C2CCCC2)c2ccc(-c3ccc(C(F)(F)F)cc3C(F)(F)F)cc12 [Example 503, N-(2-(5-(2,4-bis(trifluoromethyl)phenyl)-3-neopentyl-1H-indol-1-yl)ethyl)cyclopentanesulfonamide] | < 500 nM
30 | CC(C)C(=O)n1cc([C@H](NS(=O)(=O)C2CCC2)C(F)(F)F)c2ccc(-c3ccccc3C(F)(F)F)cc21 [Example 504, (S)—N-(2,2,2-trifluoro-1-(1-isobutyryl-6-(2-(trifluoromethyl)phenyl)-1H-indol-3-yl)ethyl)cyclobutanesulfonamide] | < 500 nM
31 | CC(C)C(=O)n1cc([C@H](NS(=O)(=O)C2CCC2)C(F)(F)F)c2cc(F)c(-c3ccccc3C(F)(F)F)cc21 [Example 505, (S)—N-(2,2,2-trifluoro-1-(5-fluoro-1-isobutyryl-6-(2-(trifluoromethyl)phenyl)-1H-indol-3-yl)ethyl)cyclobutanesulfonamide] | < 500 nM

— patent publication US20230339886A1 (University of Florida Research Foundation, Incorporated, priority 2020, published 2023)
